The values below come from patent publication US20260201008A1, “SECRETIN-DERIVED GLP1R SELECTIVE AGONISTS” (GUBRA A/S, priority 2023, published 2026).

Data set [1] in a line: Fibril formation of crude library peptides (Thioflavin T). Conditions: Physical stability of peptides. Set-up: key: average ThT fluorescence emission at 480 nm (ex 450 nm), raw units. The format is physicochemical. Put shortly:
(§1)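 Crude peptides at 267 μM in 50 mM sodium acetate pH 4.0 or 50 mM sodium phosphate pH 7.0, pre-incubated 1-2 h at room temperature, then 4 μM final ThT added. Turbidity read first as A600. ThT fluorescence (ex 450/em 480 nm) read every 10 min for 72 h at 40° C, with 5 min shaking before each read; fibril formation = average emission.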

For the next data set, the target named is SCTR (Homo sapiens, UniProt P47872). The experiment in a line: hSCTR potency, cAMP accumulation in CHO-K1 cells stably overexpressing hSCTR. The format is cell-based. On the set-up: alternatively Euroscreen ES-712-AF; FAST-0161L; host or cells: CHO-K1. The conditions noted are these: cAMP accumulation, CHO-K1 cells overexpressing hSCTR. The essentials:
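Cells plated at 2000/well in DPBS with 0.05% casein and 0.5 mM IBMX, stimulated 30 min at room temperature with graded compound doses; human secretin as positive control. cAMP read by TR-FRET after 1 h. Purified peptides tested at 11 3-fold dilutions, n=2; EC50 by variable-slope sigmoid fit.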
For orientation: Cyclic AMP is a second messenger, typically raised through Gs and lowered through Gi signalling.

Another data set has as its target GLP1R (Homo sapiens, UniProt P43220). Description: hGLP1R potency, cAMP accumulation in CHO-K1 cells stably overexpressing hGLP1R. The conditions noted are these: for EC50: cAMP accumulation, CHO-K1 cells overexpressing hGLP1R; for SCTR EC50/GLP1R EC50 ratio: selectivity for hGLP1R over hSCTR, cAMP accumulation in CHO-K1 cells. On the set-up: host or cells: CHO-K1. It is filed as cell-based. Put shortly: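 CHO-K1 cells stably expressing hGLP1R (2000/well) in DPBS with 0.05% casein and 0.5 mM IBMX were stimulated 30 min at room temperature with graded compound doses; human GLP-1(7-36) served as positive control. cAMP was read by HTRF after 1 h; EC50 came from variable-slope sigmoid fits (purified peptides: 11-point 3-fold, n=2).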

A short description of data set [2]: Turbidity of crude library peptides (absorbance at 600 nm). It is filed as physicochemical. The conditions noted are these: Physical stability of peptides. The essentials:
as §1

Setting [3] is: read-out: hSCTR pEC50 (converted).
[4] abbreviates: read-out: hGLP1R pEC50 (converted).

Where two headings read alike, the source gives them in different places. Numbered stars: 1 amine (or outer) side, 2 acyl side, 3 side chain; on linkers, the order of the positions; unused ones are H or OH. Square brackets hold non-standard residues; d marks the D form. Side chains are listed from the residue outwards. Peptide text beside a SMILES is read from it. * marks the point of attachment. C20 diacid = O=C(O)CCCCCCCCCCCCCCCCCCC(=O)*; γGlu = O=C(O)[C@H](CCC(=O)[*:2])N[*:1]; AEEA = NCCOCCOCC(=O)O; Aib = CC(C)(N)C(=O)O

Sequence of GLP1R (P43220 24-463): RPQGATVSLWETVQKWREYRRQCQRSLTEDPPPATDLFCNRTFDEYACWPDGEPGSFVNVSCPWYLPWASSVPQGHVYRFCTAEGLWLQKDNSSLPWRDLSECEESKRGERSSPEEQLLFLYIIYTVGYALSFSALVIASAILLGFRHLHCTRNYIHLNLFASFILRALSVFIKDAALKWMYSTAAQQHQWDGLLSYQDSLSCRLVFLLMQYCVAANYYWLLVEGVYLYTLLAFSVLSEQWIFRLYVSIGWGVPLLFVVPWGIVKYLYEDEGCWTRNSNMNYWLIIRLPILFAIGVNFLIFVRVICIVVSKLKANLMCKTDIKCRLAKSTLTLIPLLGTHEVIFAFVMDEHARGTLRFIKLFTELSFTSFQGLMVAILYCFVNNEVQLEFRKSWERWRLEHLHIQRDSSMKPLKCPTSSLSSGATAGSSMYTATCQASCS
Sequence of SCTR (P47872 23-440): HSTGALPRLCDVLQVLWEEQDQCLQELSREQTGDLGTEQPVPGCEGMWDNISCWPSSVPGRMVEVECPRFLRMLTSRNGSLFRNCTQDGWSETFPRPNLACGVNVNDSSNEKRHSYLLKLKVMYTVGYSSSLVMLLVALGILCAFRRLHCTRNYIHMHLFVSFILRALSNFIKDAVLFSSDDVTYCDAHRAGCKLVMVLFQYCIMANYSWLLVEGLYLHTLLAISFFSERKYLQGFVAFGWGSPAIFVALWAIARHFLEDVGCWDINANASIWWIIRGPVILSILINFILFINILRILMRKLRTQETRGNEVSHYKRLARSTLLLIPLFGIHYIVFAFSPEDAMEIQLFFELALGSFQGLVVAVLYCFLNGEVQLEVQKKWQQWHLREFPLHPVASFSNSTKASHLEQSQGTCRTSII

In data set [1], `CC[C@H](C)[C@H](NC(=O)[C@H](Cc1ccccc1)NC(=O)[C@H](CCCNC(=N)N)NC(=O)[C@H](CCC(N)=O)NC(=O)[C@H](CC(C)C)NC(=O)[C@H](C)NC(=O)[C@H](C)NC(=O)CNC(=O)[C@H](CCC(=O)O)NC(=O)[C@H](CC(C)C)NC(=O)[C@H](CC(C)C)NC(=O)[C@H](Cc1ccccc1)NC(=O)[C@H](CO)NC(=O)[C@@H]1CCCN1C(=O)[C@H](CC(=O)O)NC(=O)[C@H](CO)NC(=O)[C@@H](NC(=O)[C@H](Cc1ccccc1)NC(=O)[C@@H](NC(=O)CNC(=O)[C@H](CCC(=O)O)NC(=O)C(C)(C)NC(=O)[C@@H](N)Cc1c[nH]cn1)[C@@H](C)O)[C@@H](C)O)C(=O)N[C@@H](CCC(N)=O)C(=O)N[C@@H](Cc1c[nH]c2ccccc12)C(=O)N[C@@H](CC(C)C)C(=O)N[C@H](C(N)=O)C(C)C` [compound 126] (H-H[Aib]EGTFTSDPSFLLEGAALQRFIQWLV-NH2) came in with a Fibril formation of 41799. In addition, the results for the EC50 at SCTR (setting [3]) and on GLP1R (setting [4]) were 2000 nM and 7.94 nM, respectively. The “SCTR EC50/GLP1R EC50 ratio” value on GLP1R is 253. For the same compound, in data set [2], the “Turbidity (pH 7)” value is 0.26.
`CC(C)C[C@H](NC(=O)[C@H](Cc1ccccc1)NC(=O)[C@H](CCCNC(=N)N)NC(=O)[C@H](CCC(N)=O)NC(=O)C(C)(C)NC(=O)[C@H](C)NC(=O)[C@H](C)NC(=O)[C@H](Cc1ccccc1)NC(=O)[C@H](CCC(=O)O)NC(=O)[C@H](CCCCNC(=O)COCCOCCNC(=O)COCCOCCNC(=O)CC[C@H](NC(=O)CCCCCCCCCCCCCCCCCCC(=O)O)C(=O)O)NC(=O)[C@H](CC(C)C)NC(=O)[C@H](CCCNC(=N)N)NC(=O)[C@H](CO)NC(=O)[C@@H](NC(=O)[C@H](CC(=O)O)NC(=O)[C@H](CO)NC(=O)[C@@H](NC(=O)[C@H](Cc1ccccc1)NC(=O)[C@@H](NC(=O)CNC(=O)[C@H](CCC(=O)O)NC(=O)C(C)(C)NC(=O)[C@@H](N)Cc1c[nH]cn1)[C@@H](C)O)[C@@H](C)O)C(C)C)C(=O)N[C@@H](CCC(=O)O)C(=O)N[C@@H](Cc1c[nH]cn1)C(=O)N[C@@H](CC(C)C)C(=O)N[C@H](C(N)=O)C(C)C` [compound 68] (H-H[Aib]EGTFTSDVSRLK([AEEA-AEEA-γGlu-C20 diacid])EFAA[Aib]QRFLEHLV-NH2) yielded a Fibril formation in data set [1] of 13444. The EC50 at SCTR (read-out: pEC50 hSCTR (converted)) is 1260 nM; on GLP1R (read-out: pEC50 hGLPR1 (converted)), 0.1 nM. Further, the Selectivity on GLP1R (SCTR EC50/GLP1R EC50 ratio) is on record as 11839. In data set [2], the “Turbidity (pH 7)” value is recorded as 0.08.
The compound `CC(C)C[C@H](NC(=O)[C@H](Cc1ccccc1)NC(=O)[C@H](CCCNC(=N)N)NC(=O)[C@H](CCC(N)=O)NC(=O)C(C)(C)NC(=O)[C@H](C)NC(=O)[C@H](C)NC(=O)[C@@H](NC(=O)[C@H](CCC(=O)O)NC(=O)[C@H](CCCCNC(=O)COCCOCCNC(=O)COCCOCCNC(=O)CC[C@H](NC(=O)CCCCCCCCCCCCCCCCCCC(=O)O)C(=O)O)NC(=O)[C@H](CC(C)C)NC(=O)[C@@H](NC(=O)[C@H](CO)NC(=O)[C@@H](NC(=O)[C@H](CC(=O)O)NC(=O)[C@H](CO)NC(=O)[C@@H](NC(=O)[C@H](Cc1ccccc1)NC(=O)[C@@H](NC(=O)CNC(=O)[C@H](CCC(=O)O)NC(=O)C(C)(C)NC(=O)[C@@H](N)Cc1c[nH]cn1)[C@@H](C)O)[C@@H](C)O)C(C)C)C(C)C)[C@@H](C)O)C(=O)N[C@@H](CCC(=O)O)C(=O)N[C@@H](Cc1c[nH]cn1)C(=O)N[C@@H](CC(C)C)C(=O)N[C@H](C(N)=O)C(C)C` [compound 101] (H-H[Aib]EGTFTSDVSVLK([AEEA-AEEA-γGlu-C20 diacid])ETAA[Aib]QRFLEHLV-NH2) yielded a Fibril formation in data set [1] of 8172. Also, the EC50 on SCTR (setting [3]) was 1000 nM; at GLP1R (setting [4]), 0.2 nM. The “SCTR EC50/GLP1R EC50 ratio” value on GLP1R is 5030. The “Turbidity (pH 7)” value in data set [2] stood at 0.08.
